How the values were obtained:
TDO2 = TDO2 (Mus musculus (Mouse), UniProt P48776); assay: Pharmacodynamic assay for TDO2 in vivo activity: increase of blood tryptophan levels in mice; details: female BALB/c mice, 2 h
Source text: The compounds of the present invention increase the amount of Tryptophan in mouse blood.

human TDO2 [1] = molecular target: T1, human TDO2 (Homo sapiens (Human), UniProt P48775); assay: Assay for TDO2 enzymatic activity determination; type: biochemical; details: human recombinant TDO2, L-Trp 1 mM, kynurenine absorbance at 480 nm
Experimental: The compounds of formula I inhibit the enzymatic activity of human TDO2.
To measure the TDO2 activity, the procedure described in Dolusic et al. J. Med. Chem.; 2011, 54, […] was adapted: the reaction mixture contained (final concentrations) potassium phosphate buffer (50 mM, pH 7.5), ascorbic acid (0.25 M), methylene blue (0.125 μM), catalase (40 units/mL, from bovine liver, Sigma), and human recombinant TDO2 enzyme (prepared as described in Dolusic et al. J. Med. Chem.; 2011, 54, 5320-5334; 0.9 μg) without or with the compounds of the present invention at the indicated concentrations (total volume 112.5 μL). The reaction was initiated by the addition of 37.5 μL of L-Trp (final concentration 1 mM) at room temperature. The reaction was conducted at room temperature during one hour and stopped by the addition of 30 μL of 30% (w/v) trichloroacetic acid.
To convert N-formylkynurenine into kynurenine, the reaction mixture was incubated at 65° C. for 30 min. Then 150 μL of the reaction mixture was mixed with 120 μL of 2.5% (w/v) 4-(dimethylamino)-benzaldehyde in acetic acid and incubated for 5 min at room temperature. Kynurenine concentrations were determined by measuring the absorbance at 480 nm. A standard curve was made with pure kynurenine. The TDO activity was measured as described above using ten serial concentrations of the compounds of the present invention. Data were fitted using the Prism™ software (GraphPad Software, Inc.) using standard software configurations.

human TDO2 [2] = molecular target: T1, human TDO2; assay: Cellular assay for TDO2 activity, A172 cells naturally expressing hTDO2; type: cell-based; details: human glioblastoma A172 cells, overnight incubation, kynurenine in supernatant
Experimental: A172 is a cell line derived from human brain glioblastoma cells.
To determine TDO, the cells were incubated overnight at 37° C. at 5% CO2 in IMDM (Invitrogen) supplemented with 2% FBS and 2% penicillin/streptomycin in the presence of the compounds of the present invention, at different concentrations.
(§1) The plates were then centrifuged 5 min at 1000 rpm, and 100 μL of the supernatant were collected in a conical plate, 30 uL of TCA 30% were added and a further centrifugated at 3000×g for 10 minutes. 100 μL of the supernatant were collected in a flat bottomed plate and 100 μL of 2% (w/v) 4-(dimethylamino)-benzaldehyde in acetic acid and incubated for 5 min at room temperature. Kynurenine concentrations were determined by measuring the absorbance at 480 nm. A standard curve was made with pure kynurenine. The TDO activity was measured as described above using ten serial concentrations of the compounds of the present invention. Data were fitted using the Prism™ software (GraphPad Software, Inc.) using standard software configurations.

human TDO2 [3] = molecular target: T1, human TDO2; assay: Cellular assay for TDO2 activity, hTDO2-overexpressing P815 cells; type: cell-based; details: murine mastocytoma P815 cells overexpressing hTDO2, overnight incubation, kynurenine in supernatant
Experimental: The compounds of Formula I inhibit the activity of human TDO2 in cells.
The assay (adapted from Pilotte L et al., Proc Natl Acad Sci USA, 2012, 109(7), 2497-502) was performed in 96-well flat bottom plates seeded with murine mastocytoma P815 cells overexpressing hTDO2 (prepared as described in Pilotte et al., PNAS, 2012, 109(7), 2497-2502), at a concentration of 5×10^4 cells/well in a final volume of 200 μL. To determine TDO or IDO activity, the cells were incubated overnight at 37° C. at 5% CO2 in IMDM (Invitrogen) supplemented with 2% FBS and 2% penicillin/streptomycin in the presence of the compounds of the present invention, at different concentrations. The cells may be obtained from the American Type Cuylture Collecion [ATCC® TIB-64™ or commercially, e.g., from Sigma-Aldrich or Life Technologies.]
as §1

Sequence of TDO2 (P48776 whole entry): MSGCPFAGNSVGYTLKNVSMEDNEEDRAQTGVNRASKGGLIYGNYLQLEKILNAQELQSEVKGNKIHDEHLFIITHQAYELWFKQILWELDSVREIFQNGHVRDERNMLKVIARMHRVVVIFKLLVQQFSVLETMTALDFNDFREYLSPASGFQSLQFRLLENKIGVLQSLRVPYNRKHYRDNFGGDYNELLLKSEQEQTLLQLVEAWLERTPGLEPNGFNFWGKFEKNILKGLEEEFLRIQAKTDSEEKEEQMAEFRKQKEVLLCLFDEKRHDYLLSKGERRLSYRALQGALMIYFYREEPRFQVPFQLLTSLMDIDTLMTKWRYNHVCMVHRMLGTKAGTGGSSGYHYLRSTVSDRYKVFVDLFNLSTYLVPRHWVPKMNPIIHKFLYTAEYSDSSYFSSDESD
T1 sequence (P48775 whole entry): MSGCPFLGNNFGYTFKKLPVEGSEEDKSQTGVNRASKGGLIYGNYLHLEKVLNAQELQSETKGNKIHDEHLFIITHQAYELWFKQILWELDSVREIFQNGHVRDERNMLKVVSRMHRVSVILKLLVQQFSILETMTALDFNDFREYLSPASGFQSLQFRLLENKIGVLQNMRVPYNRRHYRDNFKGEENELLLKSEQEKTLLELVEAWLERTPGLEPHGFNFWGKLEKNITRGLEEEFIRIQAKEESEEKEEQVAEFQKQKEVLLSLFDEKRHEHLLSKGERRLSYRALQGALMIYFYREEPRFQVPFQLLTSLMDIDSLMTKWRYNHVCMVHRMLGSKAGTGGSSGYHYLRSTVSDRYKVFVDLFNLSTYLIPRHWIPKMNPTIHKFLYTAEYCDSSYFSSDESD

IC50 (human TDO2 [1]) [nM] | IC50 (human TDO2 [3]) [nM] | Compound | also measured
970 | 610 | CS(=O)(=O)NC1CCN(c2ccc(-c3c[nH]c4cc(F)ccc34)cn2)CC1 [Example 14, N-(1-(5-(6-fluoro-1H-indol-3-yl)pyridin-2-yl)piperidin-4-yl)methanesulfonamide] | Tryptophan concentration in plasma (average ± standard error of the mean) (TDO2; 30 mg/kg oral gavage): 27976 ± 1196; increase of circulating Tryptophan compared to vehicle-treated controls (TDO2; 30 mg/kg oral gavage): 33%; Tryptophan concentration in plasma (average ± standard error of the mean) (TDO2; 60 mg/kg oral gavage): 33862 ± 1529; increase of circulating Tryptophan compared to vehicle-treated controls (TDO2; 60 mg/kg oral gavage): 61%; Tryptophan concentration in plasma (average ± standard error of the mean) (TDO2; 100 mg/kg oral gavage): 35716 ± 1663; increase of circulating Tryptophan compared to vehicle-treated controls (TDO2; 100 mg/kg oral gavage): 70%; IC50 (human TDO2 [2]): 1800 nM
870 | 1300 | Fc1ccc2c(-c3ccc(NC4CCNCC4)nc3)c[nH]c2c1 [Example 17, 5-(6-fluoro-1H-indol-3-yl)-N-(piperidin-4-yl)pyridin-2-amine] | –
620 | 350 | CS(=O)(=O)NCCCNc1ccc(-c2c[nH]c3cc(F)ccc23)cn1 [Example 21, N-(3-(5-(6-fluoro-1H-indol-3-yl)pyridin-2-ylamino)propyl)methanesulfonamide] | –
1200 | 400 | CS(=O)(=O)CCCNc1ccc(-c2c[nH]c3cc(F)ccc23)cn1 [Example 22, 5-(6-fluoro-1H-indol-3-yl)-N-(3-(methylsulfonyl)propyl)pyridin-2-amine] | –
540 | 140 | CN(C)CCNc1ccc(-c2c[nH]c3cc(F)ccc23)cn1 [Example 25, N^1-(5-(6-fluoro-1H-indol-3-yl)pyridin-2-yl)-N^2,N^2-dimethylethane-1,2-diamine] | –
490 | 190 | OCCNc1ccc(-c2c[nH]c3cc(F)ccc23)cn1 [Example 27, 2-(5-(6-fluoro-1H-indol-3-yl)pyridin-2-ylamino)ethanol] | –
1500 | 1000 | CS(=O)(=O)CCNc1ccc(-c2c[nH]c3cc(F)ccc23)cn1 [Example 28, 5-(6-fluoro-1H-indol-3-yl)-N-(2-(methylsulfonyl)ethyl)pyridin-2-amine] | –
1600 | 1500 | O=C(O)CNc1ccc(-c2c[nH]c3cc(F)ccc23)cn1 [Example 30, 2-(5-(6-fluoro-1H-indol-3-yl)pyridin-2-ylamino)acetic acid] | –
790 | 120 | NC(=O)CNc1ccc(-c2c[nH]c3cc(F)ccc23)cn1 [Example 31, 2-(5-(6-fluoro-1H-indol-3-yl)pyridin-2-ylamino)acetamide] | –
290 | 240 | CNc1ccc(-c2c[nH]c3cc(F)ccc23)cn1 [Example 34, 5-(6-fluoro-1H-indol-3-yl)-N-methylpyridin-2-amine] | IC50 (human TDO2 [2]): 1600 nM
1000 | 150 | CC(=O)Nc1ccc(-c2c[nH]c3cc(F)ccc23)cn1 [Example 40, N-(5-(6-fluoro-1H-indol-3-yl)pyridin-2-yl)acetamide] | IC50 (human TDO2 [2]): 130 nM
850 | 68 | Fc1ccc2c(-c3cccnc3)c[nH]c2c1 [Example 44, 6-fluoro-3-(pyridin-3-yl)-1H-indole] | IC50 (human TDO2 [2]): 600 nM
860 | 220 | Cc1ncccc1-c1c[nH]c2cc(F)ccc12 [Example 45, 6-fluoro-3-(2-methylpyridin-3-yl)-1H-indole] | –
13000 | 670 | Cc1ccncc1-c1c[nH]c2cc(F)ccc12 [Example 46, 6-fluoro-3-(4-methylpyridin-3-yl)-1H-indole] | –
2800 | 240 | Fc1cc2[nH]cc(-c3cccnc3)c2cc1F [Example 47, 5,6-difluoro-3-(pyridin-3-yl)-1H-indole] | –
4500 | 620 | Cc1cncc(-c2c[nH]c3cc(F)ccc23)c1 [Example 48, 6-fluoro-3-(5-methylpyridin-3-yl)-1H-indole] | –

Source: patent US9758505B2, “3-(indol-3-yl)-pyridine derivatives, pharmaceutical compositions and methods for use” (ITEOS THERAPEUTICS, priority 2014, dated 2017)
